These results are taken from patent US9062066B2, “Anti-inflammatory compound having inhibitory activity against multiple tyrosine kinases and pharmaceutical composition containing same” (KOREA INSTITUTE OF SCIENCE AND TECHNOLOGY, priority 2010, dated 2015).

For one assay, the target named is Lyn tyrosine kinase (Homo sapiens (Human), UniProt P07948). The assay is described as follows: in vitro Lyn tyrosine kinase inhibition. It is filed as biochemical. The conditions noted are these: 1 uM compound; read-out: % inhibition against Lyn.
Lyn tyrosine kinase, sequence (P07948 whole entry): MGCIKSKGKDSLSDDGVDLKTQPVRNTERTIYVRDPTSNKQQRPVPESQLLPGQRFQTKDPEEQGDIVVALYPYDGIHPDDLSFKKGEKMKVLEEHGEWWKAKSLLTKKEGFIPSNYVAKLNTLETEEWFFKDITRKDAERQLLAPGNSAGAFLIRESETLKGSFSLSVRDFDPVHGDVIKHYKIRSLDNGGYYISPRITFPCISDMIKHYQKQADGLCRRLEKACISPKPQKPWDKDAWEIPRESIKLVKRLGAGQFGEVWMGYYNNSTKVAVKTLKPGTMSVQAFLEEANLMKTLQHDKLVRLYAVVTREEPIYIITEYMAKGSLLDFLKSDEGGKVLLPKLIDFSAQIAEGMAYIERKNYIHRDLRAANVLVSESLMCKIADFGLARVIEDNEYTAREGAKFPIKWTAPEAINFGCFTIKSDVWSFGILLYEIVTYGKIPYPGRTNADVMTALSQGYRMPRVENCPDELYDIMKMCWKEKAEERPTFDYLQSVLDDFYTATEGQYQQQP
A further assay relates to mouse skin fibroblast. The assay is described as follows: inhibition of migration of activated fibroblast (scratch wound). The class given is cell-based. The conditions noted are these: 0.5 uM compound, 10 ng/ml TGF-β1, 24 hours, read-out: Inhibition (%) of migration of activated fibroblast. In short, it runs like this:
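Scratch wound was made on a fibroblast monolayer, then cells were kept in DMEM with 10 ng/ml TGF-β1 at 37° C for 24 hours. After formalin fixation and crystal violet staining, cells that had moved into the wound were counted at 100× in five random fields and averaged.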

A further assay has as its target DDR1 tyrosine kinase (Homo sapiens (Human), UniProt Q08345). The assay is described as follows: in vitro DDR1 tyrosine kinase inhibition (GST-fused kinase domain). It is filed as biochemical. The conditions noted are these: 1 uM compound; read-out: % inhibition against DDR1.
Assay [1] has as its system NO synthesis in J744A.1 macrophage. The assay is described as follows: inhibition of nitric oxide (NO) synthesis in LPS-activated macrophages (Griess reagent). It is filed as cell-based. The conditions noted are these: read-out: Inhibition (%) of NO synthesis. For orientation: Griess reagent forms a coloured azo dye with nitrite.
The next assay concerns the target c-Src tyrosine kinase (Homo sapiens (Human), UniProt P12931). The assay is described as follows: in vitro c-Src tyrosine kinase inhibition (32P-ATP, poly(D4Y)n substrate). The class given is biochemical. The conditions noted are these: 1 uM compound; read-out: % inhibition against c-Src.
The target of a further assay is Fgr tyrosine kinase (Homo sapiens (Human), UniProt P09769). The assay is described as follows: in vitro Fgr tyrosine kinase inhibition. It is filed as biochemical. The conditions noted are these: 1 uM compound; read-out: % inhibition against Fgr.
Fgr tyrosine kinase, sequence (P09769 whole entry): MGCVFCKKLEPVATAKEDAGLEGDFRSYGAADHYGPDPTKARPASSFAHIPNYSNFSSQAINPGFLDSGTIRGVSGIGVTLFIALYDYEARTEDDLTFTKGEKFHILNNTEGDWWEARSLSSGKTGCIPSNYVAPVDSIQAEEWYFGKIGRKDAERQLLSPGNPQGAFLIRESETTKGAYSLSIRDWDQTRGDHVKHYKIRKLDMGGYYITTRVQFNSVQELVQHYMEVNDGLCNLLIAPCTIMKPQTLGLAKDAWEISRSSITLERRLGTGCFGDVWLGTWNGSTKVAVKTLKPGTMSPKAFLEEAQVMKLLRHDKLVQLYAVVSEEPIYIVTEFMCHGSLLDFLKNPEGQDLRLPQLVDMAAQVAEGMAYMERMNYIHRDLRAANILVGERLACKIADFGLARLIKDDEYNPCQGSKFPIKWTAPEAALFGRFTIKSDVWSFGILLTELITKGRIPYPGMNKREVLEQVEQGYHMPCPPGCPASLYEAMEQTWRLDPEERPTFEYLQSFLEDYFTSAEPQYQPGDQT
Assay [2] deals with oxazolone-induced skin inflammation of Balb/C mouse ears. The assay is described as follows: mouse skin inflammatory model induced by oxazolone (ear thickness). It is filed as in vivo. The conditions noted are these: 20 ul of 0.1% compound topical on ear, 36 hours after oxazolone. As for the experimental part:
The compounds of the present invention were evaluated for their effective anti-inflammatory activity using a skin inflammatory animal model of 8 weeks old Balb/C mouse ears induced by oxazolone. […] After 4 days, the thickness of ear was measured using a caliper for the thickness value of ear before the induction of inflammation. […] After 36 hours, the thickness of ear was measured for the increased thickness induced by inflammation. […] The average value was obtained in each group (n=4).

Assay [3] relates to α-smooth muscle actin protein expression in skin fibroblast cells. The assay is described as follows: inhibition of α-smooth muscle actin expression in fibroblast activated by type I collagen and TGF-β1 (western blotting). It is filed as cell-based, Balb/C mouse. The conditions noted are these: Mus musculus, 0.5 uM compound, 10 ng/ml TGF-β1, 48 hours, type I collagen, read-out: Inhibition (%) of α-smooth muscle actin increase. In short, it runs like this:
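α-Smooth muscle actin protein was detected by western blotting with chemiluminescence on X-ray film. Levels were quantified by densitometry of the band.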

Assay [4] concerns TNF-α synthesis in J744A.1 macrophages. The assay is described as follows: inhibition of TNF-α synthesis in LPS-activated macrophages (ELISA). It is filed as cell-based. The conditions noted are these: Macrophage, read-out: Inhibition (%) of TNF-α synthesis.
A further assay has as its target DDR2 tyrosine kinase (Homo sapiens (Human), UniProt Q16832). The assay is described as follows: in vitro DDR2 tyrosine kinase inhibition (GST-fused kinase domain). The conditions noted are these: 1 uM compound; read-out: % inhibition against DDR2. The class given is biochemical.
For the next assay, the target named is Hck tyrosine kinase (Homo sapiens (Human), UniProt P08631). The assay is described as follows: in vitro Hck tyrosine kinase inhibition. It is filed as biochemical. The conditions noted are these: 1 uM compound; read-out: % inhibition against Hck.
Hck tyrosine kinase, sequence (P08631 whole entry): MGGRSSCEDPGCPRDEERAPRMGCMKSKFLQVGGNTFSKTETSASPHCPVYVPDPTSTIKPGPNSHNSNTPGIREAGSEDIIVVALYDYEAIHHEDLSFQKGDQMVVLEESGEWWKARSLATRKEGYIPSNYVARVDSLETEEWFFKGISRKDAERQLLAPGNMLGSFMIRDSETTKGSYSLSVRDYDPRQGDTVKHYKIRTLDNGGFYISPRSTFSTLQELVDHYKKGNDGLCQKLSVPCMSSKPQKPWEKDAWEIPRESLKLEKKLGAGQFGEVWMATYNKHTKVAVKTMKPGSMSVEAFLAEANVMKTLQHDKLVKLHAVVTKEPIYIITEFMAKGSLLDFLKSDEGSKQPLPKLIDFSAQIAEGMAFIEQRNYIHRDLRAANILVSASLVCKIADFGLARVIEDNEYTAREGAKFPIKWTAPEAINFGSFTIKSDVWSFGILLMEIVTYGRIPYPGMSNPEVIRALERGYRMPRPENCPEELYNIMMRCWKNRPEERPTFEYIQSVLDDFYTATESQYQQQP
Where [5] appears, read: 10 μM compound, 100 ng/ml LPS, 6 hours.

Like-named read-outs stand apart in the source and are kept apart here.

c-Src tyrosine kinase, sequence (P12931 whole entry, looked up): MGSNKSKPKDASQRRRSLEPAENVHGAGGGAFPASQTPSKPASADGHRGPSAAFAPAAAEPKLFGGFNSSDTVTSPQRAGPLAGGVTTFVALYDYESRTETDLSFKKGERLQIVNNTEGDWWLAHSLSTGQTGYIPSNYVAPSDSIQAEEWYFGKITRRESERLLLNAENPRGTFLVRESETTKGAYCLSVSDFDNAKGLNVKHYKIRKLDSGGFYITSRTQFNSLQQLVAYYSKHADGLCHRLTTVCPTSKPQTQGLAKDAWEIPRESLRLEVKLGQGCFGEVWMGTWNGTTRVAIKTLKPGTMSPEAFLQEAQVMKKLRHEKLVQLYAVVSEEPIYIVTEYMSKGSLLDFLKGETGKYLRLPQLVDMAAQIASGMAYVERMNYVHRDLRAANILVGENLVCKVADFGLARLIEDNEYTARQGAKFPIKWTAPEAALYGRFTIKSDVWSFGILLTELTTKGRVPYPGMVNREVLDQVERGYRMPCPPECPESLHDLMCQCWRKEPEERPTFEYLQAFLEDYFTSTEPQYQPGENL
DDR1 tyrosine kinase, sequence (Q08345 610-905): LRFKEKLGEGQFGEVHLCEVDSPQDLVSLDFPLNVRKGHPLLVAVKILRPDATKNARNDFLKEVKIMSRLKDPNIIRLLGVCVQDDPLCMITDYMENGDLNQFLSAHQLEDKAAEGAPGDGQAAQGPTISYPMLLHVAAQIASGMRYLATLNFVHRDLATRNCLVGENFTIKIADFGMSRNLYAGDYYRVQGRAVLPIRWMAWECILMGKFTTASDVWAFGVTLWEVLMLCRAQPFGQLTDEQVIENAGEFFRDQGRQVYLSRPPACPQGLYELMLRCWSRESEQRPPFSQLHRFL
DDR2 tyrosine kinase, sequence (Q16832 563-849): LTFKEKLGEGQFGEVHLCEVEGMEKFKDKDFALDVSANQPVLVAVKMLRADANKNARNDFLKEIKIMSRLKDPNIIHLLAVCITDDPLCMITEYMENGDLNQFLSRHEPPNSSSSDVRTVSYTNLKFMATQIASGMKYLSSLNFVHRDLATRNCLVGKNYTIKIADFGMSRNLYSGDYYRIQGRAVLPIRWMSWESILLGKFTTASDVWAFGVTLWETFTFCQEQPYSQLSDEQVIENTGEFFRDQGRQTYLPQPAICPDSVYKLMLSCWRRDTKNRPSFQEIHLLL

With `Cl.Oc1cccc(Nc2ncnc3cc(-c4cccc(CN5CCOCC5)c4)sc23)c1` [LCB 03-0066, 3-(6-(3-(morpholinomethyl)phenyl)thieno[3,2-d]pyrimidin-4-ylamino)phenol], the inhibition at 1 µM at Lyn tyrosine kinase, at DDR1 tyrosine kinase, on c-Src tyrosine kinase, on Fgr tyrosine kinase, on DDR2 tyrosine kinase and at Hck tyrosine kinase was above 80% each time. Further, the inhibition at 0.5 µM with mouse skin fibroblast was 54%; in assay [3], 75%. Further, the inhibition at 10 µM in [1] (10 μM compound, LPS, 24 hours) was 87%; in assay [4] (setting [5]), 93%. Moreover, the “Inhibition (%) of increase of ear thickness” value in assay [2] amounted to 67%.
With `CC(C)CNCc1cccc(-c2cc3ncnc(Nc4cccc(O)c4)c3s2)c1.Cl` [LCB 03-0067, 3-(6-(3-((isobutylamino)methyl)phenyl)thieno[3,2-d]pyrimidin-4-ylamino)phenol], the inhibition at 1 µM on Lyn tyrosine kinase, at DDR1 tyrosine kinase, on c-Src tyrosine kinase, at Fgr tyrosine kinase, on DDR2 tyrosine kinase and on Hck tyrosine kinase was above 80% in each case. The inhibition at 0.5 µM came out at 33% in the assay with mouse skin fibroblast and 49% in [3]. For the same compound, the inhibition at 10 µM in assay [1] (10 μM compound, LPS, 24 hours) amounted to 85%; in assay [4] (setting [5]), 83%. Further, the “Inhibition (%) of increase of ear thickness” value in [2] came out at 54%.
On to `Cl.OCCNCc1ccc(-c2cc3ncnc(Nc4cccc(O)c4)c3s2)cc1` [LCB 03-0070, 3-(6-(4-((2-hydroxyethylamino)methyl)phenyl)thieno[3,2-d]pyrimidin-4-ylamino)phenol], for which the inhibition at 1 µM on Lyn tyrosine kinase, on DDR1 tyrosine kinase, on c-Src tyrosine kinase, on Fgr tyrosine kinase, on DDR2 tyrosine kinase and at Hck tyrosine kinase was above 80% each time. Besides, the inhibition at 0.5 µM was 30% in the assay with mouse skin fibroblast and 42% in assay [3]. For the same compound, the inhibition at 10 µM in [1] (10 μM compound, LPS, 24 hours) stood at 90%; in assay [4] (setting [5]), 77%. Besides, the “Inhibition (%) of increase of ear thickness” value in assay [2] is given as 55%.
Take `Cl.Oc1cccc(Nc2ncnc3cc(-c4cccc(CCN5CCCC5)c4)sc23)c1` [LCB 03-0076, 3-(6-(3-(2-(pyrrolidin-1-yl)ethyl)phenyl)thieno[3,2-d]pyrimidin-4-ylamino)phenol]: the inhibition at 1 µM on Lyn tyrosine kinase, on DDR1 tyrosine kinase, on c-Src tyrosine kinase, at Fgr tyrosine kinase, on DDR2 tyrosine kinase and at Hck tyrosine kinase was above 80% in each case. Besides, the inhibition at 0.5 µM turned out to be 45% with mouse skin fibroblast and 57% in assay [3]. Further, the inhibition at 10 µM in assay [1] (10 μM compound, LPS, 24 hours) was found to be 91%; in assay [4] (setting [5]), 90%. The “Inhibition (%) of increase of ear thickness” value in assay [2] was determined as 54%.
For `Oc1cccc(Nc2ncnc3cc(-c4cccc(CCN5CCNCC5)c4)sc23)c1` [LCB 03-0079, 3-(6-(3-(2-(piperazin-1-yl)ethyl)phenyl)thieno[3,2-d]pyrimidin-4-ylamino)phenol], the inhibition at 1 µM at Lyn tyrosine kinase, at DDR1 tyrosine kinase, at c-Src tyrosine kinase, at Fgr tyrosine kinase, on DDR2 tyrosine kinase and on Hck tyrosine kinase was above 80% in each case. The inhibition at 0.5 µM in the assay on mouse skin fibroblast worked out at 41%; in assay [3] it was 61%. In addition, the inhibition at 10 µM in assay [1] (10 μM compound, LPS, 24 hours) turned out to be 74%; in assay [4] (setting [5]), 67%. Further, the “Inhibition (%) of increase of ear thickness” value in assay [2] is listed as 51%.
Turning to `Oc1cccc(Nc2ccnc3cc(-c4ccc(CN5CCCC5)cc4)sc23)c1` [LCB 03-0080, 3-(2-(4-(pyrrolidin-1-ylmethyl)phenyl)thieno[3,2-b]pyridin-7-ylamino)phenol], the inhibition at 1 µM on Lyn tyrosine kinase is above 60%; at DDR1 tyrosine kinase, above 80%; at c-Src tyrosine kinase, above 60%; on Fgr tyrosine kinase, above 60%; on DDR2 tyrosine kinase it was above 80%; at Hck tyrosine kinase it was above 60%. Also, the inhibition at 0.5 µM in the assay on mouse skin fibroblast was 41%; in assay [3], 62%. The figures for the inhibition at 10 µM in assay [1] (24 h) and in [4] (6 h) were 78% and 59%, respectively. The “Inhibition (%) of increase of ear thickness” value in assay [2] is 53%.
`Oc1cccc(Nc2ccnc3cc(-c4ccc(CN5CCOCC5)cc4)sc23)c1` [LCB 03-0083, 3-(2-(4-(morpholinomethyl)phenyl)thieno[3,2-b]pyridin-7-ylamino)phenol]: the inhibition at 1 µM was above 60% at Lyn tyrosine kinase; above 80% at DDR1 tyrosine kinase; above 60% at c-Src tyrosine kinase; above 60% on Fgr tyrosine kinase; above 80% on DDR2 tyrosine kinase; above 60% at Hck tyrosine kinase. Further, the inhibition at 0.5 µM came out at 33% with mouse skin fibroblast and 55% in assay [3]. For the same compound, the inhibition at 10 µM in assay [1] (10 μM compound, LPS, 24 hours) worked out at 71%; in [4] (setting [5]), 62%. The “Inhibition (%) of increase of ear thickness” value in assay [2] is on record as 47%.
As to `CN1CCN(Cc2ccc(-c3cc4nccc(Nc5cccc(O)c5)c4s3)cc2)CC1` [LCB 03-0084, 3-(2-(4-((4-methylpiperazin-1-yl)methyl)phenyl)thieno[3,2-b]pyridin-7-ylamino)phenol], the inhibition at 1 µM on Lyn tyrosine kinase was above 60%; at DDR1 tyrosine kinase it was above 80%; on c-Src tyrosine kinase, above 60%; on Fgr tyrosine kinase, above 60%; on DDR2 tyrosine kinase, above 80%; at Hck tyrosine kinase, above 60%. Besides, the inhibition at 0.5 µM in the assay on mouse skin fibroblast was determined as 36%; in assay [3], 57%. The inhibition at 10 µM in assay [1] (10 μM compound, LPS, 24 hours) was found to be 85%; in [4] (setting [5]) it was 64%. Also, the “Inhibition (%) of increase of ear thickness” value in assay [2] was found to be 49%.
Turning to `Oc1cccc(Nc2ncnc3cc(-c4ccc(CN5CCCC5)s4)sc23)c1` [LCB 03-0085, 3-(6-(5-(pyrrolidin-1-ylmethyl)thiophene-2-yl)thieno[3,2-d]pyrimidin-4-ylamino)phenol], the inhibition at 1 µM is above 70% at Lyn tyrosine kinase; above 80% on DDR1 tyrosine kinase; above 70% on c-Src tyrosine kinase; above 70% at Fgr tyrosine kinase; above 80% on DDR2 tyrosine kinase; above 70% at Hck tyrosine kinase. Also, the inhibition at 0.5 µM in the assay on mouse skin fibroblast worked out at 35%; in [3] it was 51%. For the same compound, the inhibition at 10 µM in [1] (24 h) amounted to 93%; in assay [4] (6 h), 74%. For the same compound, the “Inhibition (%) of increase of ear thickness” value in assay [2] is on record as 53%.
Regarding `Oc1cccc(Nc2ncnc3cc(-c4ccc(CN5CCCC5)o4)sc23)c1` [LCB 03-0086, 3-(6-(5-(pyrrolidin-1-ylmethyl)furan-2-yl)thieno[3,2-d]pyrimidin-4-ylamino)phenol], the inhibition at 1 µM was above 70% at Lyn tyrosine kinase; above 80% on DDR1 tyrosine kinase; above 70% on c-Src tyrosine kinase; above 70% on Fgr tyrosine kinase; above 80% at DDR2 tyrosine kinase; above 70% on Hck tyrosine kinase. The inhibition at 0.5 µM in the assay with mouse skin fibroblast stood at 21%; in assay [3] it was 33%. Besides, the figures for the inhibition at 10 µM in [1] (24 h) and in assay [4] (6 h) were 72% and 68%, respectively. In addition, the “Inhibition (%) of increase of ear thickness” value in assay [2] is 48%.
For `CN1CCN(Cc2ccc(-c3cc4ncnc(Nc5cccc(O)c5)c4s3)o2)CC1` [LCB 03-0087, 3-(6-(5-((4-methylpiperazin-1-yl)methyl)furan-2-yl)thieno[3,2-d]pyrimidin-4-ylamino)phenol], the inhibition at 1 µM on Lyn tyrosine kinase, at DDR1 tyrosine kinase, at c-Src tyrosine kinase, at Fgr tyrosine kinase, at DDR2 tyrosine kinase and on Hck tyrosine kinase was above 70% in each case. For the same compound, the inhibition at 0.5 µM turned out to be 24% in the assay with mouse skin fibroblast and 29% in assay [3]. Besides, the inhibition at 10 µM in [1] (24 h) was determined as 83%; in assay [4] (6 h) it was 68%. Besides, the “Inhibition (%) of increase of ear thickness” value in [2] was determined as 43%.
